Laboratory results: patent US20220249462A1, “COMPOSITIONS AND METHODS USING TRIGONELLINE TO PRODUCE INTRACELLULAR NAD+” (SOCIETE DES PRODUITS NESTLE S.A., priority 2019, published 2022)

Experiments:
[1] = tested on: Human Skeletal Muscle Myotubes (HSMM); conditions: 6 h
Experimental: Human primary myoblasts from two different donors were seeded in 6 well plates at a density of 200′000 cells per well in skeletal muscle growth medium (SKM-M, AMSbio). After one day, the differentiation was induced by a medium change for 4 days using differentiation culture medium (Gibco No. 31330-028). Cells were treated with isotopically labelled trigonelline (13C carbonyl; 32H on methyl) for 6 h.
Cell extracts were separated on a Vanquish UHPLC+focused LC system (Thermo Scientific) with a hydrophilic liquid chromatography (HILIC) iHILIC-Fusion(P) column (Hilicon) carrying the dimensions 150×2.1 mm, 5 μm and a guard column (iHILIC-fusion(P), Hilicon) in front. The separation of metabolites was achieved by applying a linear solvent gradient in normal phase at 0.25 mL/min flow rate and 35° C. of temperature. As mobile phase, solvent A was water with 10 mM ammonium acetate and 0.04% (v/v) ammonium hydroxide, pH ˜9.3, and solvent B was acetonitrile.
The eluting metabolites were analyzed with an Orbitrap Fusion Lumos mass spectrometer (Thermo Scientific) with a heated electrospray ionization (H-ESI) source in positive and negative mode at a resolution of 60,000 at m/z of 200. Instrument control and data analysis were conducted using Xcalibur (Thermo Scientific).

[2] = tested on: RW1596 (myo-3p::GFP) worms; conditions: 1 mM trigonelline chloride, 11 day old worms
Experimental: RW1596 (myo-3p::GFP) worms were collected at Day 1 (young adults) and at Day 11 (aged animals) for muscle integrity assessment. Worms were immobilized with tetramisole and analyzed by confocal microscopy, to assess the muscle fibers morphology shown by GFP fluorescence imaging. Trigonelline treatment with 1 mM trigonelline chloride and experimental measurements were started at Day 1 of wild type N2 worm adulthood, in a regimen of chronic exposure till experiments termination.

C. elegans [3] = conditions: 1 mM trigonelline chloride, day 8 old worms
Experimental: Absolute quantification of the mtDNA copy number in wild type N2 worms was performed by real-time PCR. Relative values for nduo-1, and act-1 were compared within each sample to generate a ratio representing the relative level of mitochondrial DNA per nuclear genome. The average of at least two technical repeats was used for each biological data point. Each experiment was performed on at least ten independent biological samples (individual worms). Trigonelline treatment with 1 mM trigonelline chloride and experimental measurements were started at Day 1 of wild type N2 worm adulthood, in a regimen of chronic exposure till experiments termination.

C. elegans [4] = conditions: 1 mM, chronic exposure from Day 1 of adulthood, wild type N2
Experimental: Worm lifespan tests were performed using about 100 animals per condition and scored manually every other day. Trigonelline treatment and experimental measurements were started at Day 1 of wild type N2 worm adulthood, in a regimen of chronic exposure till experiments termination.

C. elegans [5] = conditions: 1 mM
Experimental: C. elegans mobility test was performed using the Movement Tracker software (Mouchiroud, L. et al. Curr Protoc Neurosci 77, 8.37.1-8.37.21 (2016)). The experiments were repeated at least twice. Trigonelline treatment and experimental measurements were started at Day 1 of wild type N2 worm adulthood, in a regimen of chronic exposure till experiments termination.

C. elegans [6] = conditions: 1 mM, day 8 and day 11 old worms
Source text: 45 to 60 worms per condition were manually scored for mobility after poking. Worms that were unable to respond to any repeated stimulation were scored as dead. […] Trigonelline treatment and experimental measurements were started at Day 1 of wild type N2 worm adulthood, in a regimen of chronic exposure til experiments termination.

[7] = tested on: Human Skeletal Muscle Myotubes (HSMM); assay: Colorimetric NAD+ quantification in human primary myoblasts differentiated to myotubes, 16 h treatment; type: cell-based; conditions: different doses
Experimental: After one day, the differentiation is induced by a medium change for 4 days. Cells were treated with synthetic trigonelline monohydrate (FIG. 4A) or with Fenugreek seed extract enriched in trigonelline containing 40.45% trigonelline (FIG. 4B) for 16 h at difference doses. NAD+ was measured using colorimetric NAD+ quantification assay (Biovision NAD+/NADH Quantitation Colorimetric Kit #k337-100).

C57BL/6JRj male mice = assay: Liver NAD+ in mice after oral gavage; type: in vivo; conditions: equimolar of 300 mg/kg trigonelline, 120 minutes
Experimental: 10 weeks C57BL/6JRj male mice received trigonelline (sigma #T5509) or fenugreek seed extract enriched in trigonelline (40.45% trigonelline) by oral gavage (equimolar of 300 mg/kg trigonelline, n=8/group). After 120 minutes treatment, the liver was harvested and flash frozen in liquid nitrogen. NAD+ was measured in liver using an enzymatic method adapted from Dall, M., et al., Mol Cell Endocrinol, 2018. 473:p. 245-256.

C[n+]1cccc(C(=O)[O-])c1 [trigonelline, 1-methylpyridin-1-ium-3-carboxylate]
NAD+ levels relative to control ([1]; 500 μM, human myotubes from 2 donors, LC-MS): enhancement of NAD+ levels | Myofibrillar structure (GFP-tagged myosin morphology) compared to age matched control [2]: improved more organized myofibrillar structure | Mitochondrial (nduo-1) relative to nuclear (act-1) DNA ratio compared to control (C. elegans [3]): higher than in the control group

C[n+]1cccc(C(=O)[O-])c1 [trigonelline (13C-carbonyl, C2H3), reference compound]
[13C]-isotopic enrichment of NAD+ (% of 13C-enrichment) ([1]; 500 μM labelled trigonelline, compared to NAD+ in baseline conditions, corrected for natural abundance): 45%

C[n+]1cccc(C(=O)O)c1 [trigonelline chloride]
Increase of lifespan (survival curve) (C. elegans [4]): 21% | Distance travelled during spontaneous mobility assay compared to control (C. elegans [5]; advanced aging phase): significantly increased | Mean speed during spontaneous mobility assay compared to the control (C. elegans [5]; from day 1 adulthood): increased the mean speed | Stimulated mobility score (percentage of worms responsive to a physical stimulus) (C. elegans [6]): more responsive to a physical stimulus

C[n+]1cccc(C(=O)[O-])c1 [chemically synthesized trigonelline, trigonelline monohydrate]
NAD+ content compared to the control [7]: significant increase in NAD+ content | NAD+ content in the liver compared to the control (C57BL/6JRj male mice): significant increase in NAD+ content in the liver
